Experimental data: patent US20090004112A1, “METHODS FOR THE TREATMENT OF NEURODEGENERATIVE DISEASES USING NMDA RECEPTOR GLYCINE SITE ANTAGONISTS” (THE TRUSTEES OF COLUMBIA UNIVERSITY IN THE CITY OF NEW YORK, priority 2006, published 2009)

How the values were obtained:
[1] = system: PD-associated LRRK2 mutant; test: Formation of LC3-GFP labeled aggregates in neurites / PD-associated LRRK2 pathology; type: cell-based
Source text: A method is disclosed for treating a neurodegenerative disease, for example, Parkinson's Disease associated with a mutant of leucine-rich repeat kinase-2 (LRRK2), with NMDA antagonists. The methods include assessing accumulation of LC3-GFP labeled aggregates. The methods may be carried out on primary neurons in vitro in a cell culture, or in vivo in an animal. In one embodiment, the cell is a post-mitotic neuron. In another embodiment, the post-mitotic neuron is a cortical neuron, a dopamine neuron, or a sympathetic neuron.
Mutations in LRRK2 underlie an autosomal dominant, inherited form of Parkinson's disease (PD) that mimics all of the clinical features of the common sporadic form of PD. The LRRK2 protein includes putative GTPase, protein kinase, WD40 repeat, and leucine rich repeat (LRR) domains of unknown function.

[2] = system: wild-type LRRK2 overexpressing cells; test: Process length in wild-type LRRK2 overexpressing primary cortical neurons; type: cell-based, rat; settings: 10 μM
Source text: FIGS. 8A-8B. […] N=25 for each group. […] N=10 for each group.
Cell Culture and Transfection.

| Structure (SMILES) | PD-associated LRRK2 pathology [1] | formation of LC3-GFP labeled aggregates in neurites [1] | process length in wild-type LRRK2 overexpressing cells [2] |
| --- | --- | --- | --- |
| O=c1c(-c2cccc(Oc3ccccc3)c2)c(O)[nH]c2cc(Cl)ccc12 [L-701,324, 7-chloro-2-hydroxy-3-[3-(phenoxy)phenyl]-1H-quinolin-4-one] | ameliorated | ameliorated |  |
| N[C@@H](CCC(=O)N[C@@H](CS)C(=O)NCC(=O)O)C(=O)O [glutathione] |  |  | do not alter process length |
| NC1(C(=O)O)CCC1 [1-aminocyclobutane carboxylic acid] |  |  | do not alter process length |
| O=C1CC(c2ccccc2)Oc2ccccc21 (stereo not shown) [flavanone] |  |  | do not alter process length |
| Oc1ccc(O)cc1 [hydroquinone] |  |  | do not alter process length |
| Nc1ccccc1C(=O)CC(N)C(=O)O (stereo not shown) [kynurenine] |  |  | do not alter process length |
